Measurements published in patent publication US20230242871A1, “GENERATION OF PRIMORDIAL GERM CELLS AND METHODS OF USING THE SAME” (The Board of Trustees of the Leland Stanfor Junior …, priority 2020, published 2023).

Tested on: NANOS3-mCherry hESCs
Assay: PGC differentiation of NANOS3-mCherry hESCs, flow cytometry for NANOS3-mCherry fluorescent reporter expression
Format: cell-based, human
Conditions: for efficiency upon SCF/EGF subtraction: SCF/EGF subtraction from D0.5-1.5; for efficiency upon SCF/EGF subtraction / effect of absence of SCF and EGF on PGC differentiation / requirement on the D0.5-D1.5 interval: FIG. 5C; for effect of absence of SCF and EGF on PGC differentiation: absence in the same time window (24 hrs at day 2); for requirement on the D0.5-D1.5 interval: posterior epiblast differentiation into PGCs
Excerpt: In the NANOS3-mCherry hESC line, a 2A-mCherry fluorescent reporter was inserted immediately downstream of the NANOS3 gene without disrupting its coding sequence (Irie et al., 2014). In the SOX17-GFP hESC line, a GFP fluorescent reporter was inserted immediately after the SOX17 start codon, thus functionally invalidating one SOX17 allele (Wang et al., 2011). In the NANOG-2A-YFP hESC line, Cas9 RNP/AAV6-based genome editing (Martin et al., 2019) was used to insert a 2A-iCaspase9-2A-YFP fluorescent reporter immediately downstream of the NANOG gene without disrupting the NANOG coding sequence.
hPSC differentiation into PGCs. Undifferentiated hPSCs were maintained in mTeSR1 + 1% penicillin/streptomycin and enzymatically passaged (Accutase, 1:8-1:12 split) for differentiation. After overnight recovery in mTeSR1 + Thiazovivin (ROCK inhibitor, 5 µM), the following morning, hPSCs were briefly washed (DMEM/F12) and differentiated into posterior epiblast for 12 hours (100 ng/mL Activin + 3 µM CHIR99021 + 10 µM Y-27632) in aRB27 basal media, which comprised Advanced RPMI 1640 medium supplemented with 1% B27 supplement, 0.1 mM non-essential amino acids (NEAA), 100 U/ml Penicillin + 0.1 mg/ml Streptomycin, and 2 mM L-Glutamine (Kobayashi et al., 2017). Subsequently, […], […], […], 100 ng/mL SCF, 50 ng/mL EGF, 1 µM XAV939, and 10 µM Y-27632 for 24 hours (all in aRB27 basal media). For comparison, published PGC differentiation protocols (Sasaki et al., 2015; Kobayashi et al., 2017) were performed as described previously.
Flow cytometry and fluorescence-activated cell sorting (FACS) for cell-surface marker expression. hPSCs or their differentiated derivatives were dissociated using TrypLE Express (Gibco), were washed off the plate with FACS buffer (PBS + 0.1% BSA fraction V [Gibco] + 1 mM EDTA [Gibco] + 1% penicillin/streptomycin [Gibco]) and were pelleted by centrifugation (5 mins, 4° C.). Subsequently, cell pellets were directly resuspended in FACS buffer containing pre-diluted primary antibodies (listed below), thoroughly triturated to ensure a single cell suspension, and primary antibody staining was conducted for 30 mins on ice. Afterwards, cells were washed with an excess of FACS buffer and pelleted again, and this was conducted one more time. Finally, washed cell pellets were resuspended in FACS buffer containing 1.1 µM DAPI (Biolegend), and were strained through a 35 µm filter. Flow cytometry and sorting was conducted on a BD FACSAria II (Stanford Stem Cell Institute FACS Core).

Compound	differentiation of posterior epiblast into PGCs (phase II: 3 days in PGC-specifying media after 12 hours WNT agonist (phase I), FIG. 1F)	efficiency upon SCF/EGF subtraction (readout D3.5)	effect of absence of SCF and EGF on PGC differentiation	requirement on the D0.5-D1.5 interval	requirement of LIF for the second differentiation stage (FIG. 5E)	efficiency upon addition of LIF (LIF added during D0.5-3.5, readout D3.5, FIG. 5E)
O=c1[nH]c(-c2ccc(C(F)(F)F)cc2)nc2c1CSCC2 [XAV939, 3,5,7,8-Tetrahydro-2-[4-(trifluoromethyl)phenyl]-4H-thiopyrano[4,3-d]pyrimidin-4-one, reference compound]	promotes differentiation of posterior epiblast into PGCs					
EGF: epidermal growth factor, UniProt P01133 (NSDSECPLSHDGYCLHDGVCMYIEALDKYACNCVVGYIGERCQYRDLKWWELR; UniProt P01133 971-1023, looked up)		enhance efficiency	superfluous	dispensable		
LIF: LIF, commonly used to enhance PGC survival (Peprotech 300-05)					dispensable	does not improve efficiency
SCF: stem cell factor, also known as Kit ligand		enhance efficiency	superfluous	dispensable		
